pIC50: −log10 of the molar value.
How the values were obtained:
[1] = biological target: T1, ROS1 (Homo sapiens, UniProt P08922); experiment: ROS1 kinase inhibitory activity evaluation (mobility shift, EZ Reader II); assay type: biochemical; conditions: ROS1 25 pg/μL, FL-Peptide 22 substrate, three separate measurements
T1 construct: purchased Carna Biosciences 08-163
Protocol: Next, a substrate reaction solution was prepared. […] Then, the reaction stop solution was added thereto at a concentration of 40 μL/well. Substrate phosphorylation intensity was measured using EZ Reader II (Caliper Life Sciences).

[2] = biological target: T1, ROS1; experiment: ROS1 autophosphorylation inhibitory activity evaluation (ADP-Glo); assay type: biochemical; conditions: 200 nM inactive ROS1, ATP 1 mM, 25° C. 1.5 hours, ADP generated, four separate measurements
How it was run: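 IC50 was derived by curve fitting of ADP output measured with ADP-Glo reagents. The output reflects ROS1 self-phosphorylation over 1.5 hours at 25° C. Buffer was HEPES pH 7.5 with MgCl2, Brij-58 and DTT, and ATP was 1 mM final.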

[3] = tested on: HCC78 cells having ROS1 fusion gene; experiment: HCC78 cell growth assay (CellTiter-Glo); assay type: cell-based; conditions: Homo sapiens, HCC78, 72 h, 72 hours culture, 2% FBS medium, luminescence, four separate measurements; read-out: growth inhibitory effect on HCC78 cells having ROS1 fusion gene IC50

T1 sequence (P08922 28-2347): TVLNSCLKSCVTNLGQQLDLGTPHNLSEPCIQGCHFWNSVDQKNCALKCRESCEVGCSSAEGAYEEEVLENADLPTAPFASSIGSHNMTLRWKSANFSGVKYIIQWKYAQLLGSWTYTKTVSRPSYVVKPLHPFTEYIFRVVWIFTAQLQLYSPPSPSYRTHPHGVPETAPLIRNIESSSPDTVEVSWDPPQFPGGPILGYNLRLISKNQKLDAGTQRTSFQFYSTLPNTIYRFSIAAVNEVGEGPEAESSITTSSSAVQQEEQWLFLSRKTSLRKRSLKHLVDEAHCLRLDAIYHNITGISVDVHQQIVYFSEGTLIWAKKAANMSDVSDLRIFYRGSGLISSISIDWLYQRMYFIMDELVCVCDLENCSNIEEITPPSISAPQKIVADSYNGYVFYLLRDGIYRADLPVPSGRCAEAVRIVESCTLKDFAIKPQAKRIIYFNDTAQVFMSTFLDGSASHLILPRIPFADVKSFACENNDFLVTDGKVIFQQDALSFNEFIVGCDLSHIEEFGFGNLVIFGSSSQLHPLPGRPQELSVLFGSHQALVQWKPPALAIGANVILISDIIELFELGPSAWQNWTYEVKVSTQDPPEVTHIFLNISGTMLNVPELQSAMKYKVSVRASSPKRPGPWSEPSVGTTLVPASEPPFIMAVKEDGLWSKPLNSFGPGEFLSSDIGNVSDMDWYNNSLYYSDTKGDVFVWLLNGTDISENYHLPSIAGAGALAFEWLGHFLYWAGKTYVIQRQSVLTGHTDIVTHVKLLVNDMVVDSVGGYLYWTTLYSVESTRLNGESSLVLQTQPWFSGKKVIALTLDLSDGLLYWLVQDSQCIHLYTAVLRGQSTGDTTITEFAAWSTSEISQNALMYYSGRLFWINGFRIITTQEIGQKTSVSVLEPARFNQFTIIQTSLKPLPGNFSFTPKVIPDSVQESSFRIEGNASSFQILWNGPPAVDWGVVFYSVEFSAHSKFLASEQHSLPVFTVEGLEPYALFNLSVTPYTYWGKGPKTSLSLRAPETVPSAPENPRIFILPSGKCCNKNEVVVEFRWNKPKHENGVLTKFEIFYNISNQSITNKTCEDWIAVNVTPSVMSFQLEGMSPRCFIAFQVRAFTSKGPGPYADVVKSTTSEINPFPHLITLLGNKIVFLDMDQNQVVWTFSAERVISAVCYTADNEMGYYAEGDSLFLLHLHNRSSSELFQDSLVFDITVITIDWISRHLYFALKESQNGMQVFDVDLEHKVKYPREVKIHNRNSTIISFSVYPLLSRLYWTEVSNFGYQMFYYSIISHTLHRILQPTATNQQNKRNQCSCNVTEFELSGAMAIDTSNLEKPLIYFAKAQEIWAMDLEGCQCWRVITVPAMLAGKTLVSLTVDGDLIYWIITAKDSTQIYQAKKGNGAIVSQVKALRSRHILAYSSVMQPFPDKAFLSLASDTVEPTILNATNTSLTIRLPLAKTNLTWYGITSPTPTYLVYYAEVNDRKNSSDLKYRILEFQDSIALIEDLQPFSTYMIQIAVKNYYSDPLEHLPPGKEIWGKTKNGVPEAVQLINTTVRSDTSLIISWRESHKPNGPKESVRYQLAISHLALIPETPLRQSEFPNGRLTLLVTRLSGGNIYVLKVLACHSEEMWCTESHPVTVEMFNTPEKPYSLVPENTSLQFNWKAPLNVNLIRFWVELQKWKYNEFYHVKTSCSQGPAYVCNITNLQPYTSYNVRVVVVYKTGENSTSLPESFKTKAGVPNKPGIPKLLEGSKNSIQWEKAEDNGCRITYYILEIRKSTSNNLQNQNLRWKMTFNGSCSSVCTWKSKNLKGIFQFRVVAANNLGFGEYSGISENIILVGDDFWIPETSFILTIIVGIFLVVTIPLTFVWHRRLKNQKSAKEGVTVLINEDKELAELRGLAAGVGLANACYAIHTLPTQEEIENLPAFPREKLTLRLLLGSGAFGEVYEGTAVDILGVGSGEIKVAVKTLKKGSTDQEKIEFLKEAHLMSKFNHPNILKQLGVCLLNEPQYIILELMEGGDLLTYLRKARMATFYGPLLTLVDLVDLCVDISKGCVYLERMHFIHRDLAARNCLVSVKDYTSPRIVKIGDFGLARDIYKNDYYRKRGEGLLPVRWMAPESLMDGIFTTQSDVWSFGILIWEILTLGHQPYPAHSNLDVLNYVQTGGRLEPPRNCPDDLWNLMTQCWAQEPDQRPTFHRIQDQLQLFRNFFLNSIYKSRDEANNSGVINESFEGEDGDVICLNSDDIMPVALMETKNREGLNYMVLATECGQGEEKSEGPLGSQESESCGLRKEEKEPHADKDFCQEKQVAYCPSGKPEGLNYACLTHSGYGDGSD

| Compound | pIC50 [1] | pIC50 [2] | pIC50 [3] |
| --- | --- | --- | --- |
| C[C@@H](Nc1ccc2ncc(-c3ccc(OC[C@@H]4CC(F)CN4)cc3)n2n1)c1cccc(F)c1 (stereo in doubt) [Example 33, N-[(1R)-1-(3-Fluorophenyl)ethyl]-3-[4-[[(2S,4S)-4-fluoropyrrolidin-2-yl]methoxy]phenyl]imidazo[1,2-b]pyridazin-6-amine] | > 9.00 | > 7.70 | 7.00 to 7.70 |
| C[C@@H](Nc1ccc2ncc(-c3ccc(OC4CNC4)cc3)n2n1)c1cccc(F)c1 [Example 25, 3-[4-(Azetidin-3-yloxy)phenyl]-N-[(1R)-1-(3-fluorophenyl)ethyl]imidazo[1,2-b]pyridazin-6-amine] | 8.00 to 9.00 | > 7.70 | 7.00 to 7.70 |
| c1ccc(CNc2ccc3ncc(-c4ccc(OCC[C@@H]5CCCN5)cc4)n3n2)cc1 [Example 6, N-Benzyl-3-[4-[2-[(2S)-pyrrolidin-2-yl]ethoxy]phenyl]imidazo[1,2-b]pyridazin-6-amine] | 8.00 to 9.00 | 7.00 to 7.70 | 7.00 to 7.70 |
| C[C@@H](Nc1ccc2ncc(-c3ccc(O[C@H]4C[C@H](N)C4)cc3)n2n1)c1cccc(F)c1 [Example 51] | 8.00 to 9.00 | > 7.70 | 7.00 to 7.70 |
| CC[C@H](N)COc1ccc(-c2cnc3ccc(N[C@H](C)c4cccc(F)c4)nn23)cc1 [Example 49, 3-[4-[(2S)-2-Aminobutoxy]phenyl]-N-[(1R)-1-(3-fluorophenyl)ethyl]imidazo[1,2-b]pyridazin-6-amine] | > 9.00 | > 7.70 | > 7.70 |

More lines, now with the values ahead:

| pIC50 [1] | pIC50 [2] | pIC50 [3] | Compound |
| --- | --- | --- | --- |
| 8.00 to 9.00 | 7.00 to 7.70 | 7.00 to 7.70 | CN(Cc1cncc(Cl)c1)c1ccc2ncc(-c3ccc(N4C[C@@H](N)CC4=O)cc3)n2n1 [Example 122, (4S)-4-Amino-1-[4-[6-[(5-chloro-3-pyridyl)methyl-methylamino]imidazo[1,2-b]pyridazin-3-yl]phenyl]pyrrolidin-2-one] |
| > 9.00 | 7.00 to 7.70 | 7.00 to 7.70 | C[C@@H](Nc1ccc2ncc(-c3cc(F)cc(OC[C@@H]4CCN4)c3)n2n1)c1cccc(F)c1 [Example 62, 3-[3-[[(2S)-Azetidin-2-yl]methoxy]-5-fluoro-phenyl]-N-[(1R)-1-(3-fluorophenyl)ethyl]imidazo[1,2-b]pyridazin-6-amine] |
| > 9.00 | > 7.70 | > 7.70 | C[C@@H](Nc1ccc2ncc(-c3ccc(N4C[C@@H](N)CC4=O)cc3)n2n1)c1ccccc1 [Example 88, (4S)-4-Amino-1-[4-[6-[[(1R)-1-phenylethyl]amino]imidazo[1,2-b]pyridazin-3-yl]phenyl]pyrrolidin-2-one] |
| 8.00 to 9.00 | > 7.70 | > 7.70 | CN(Cc1cncc(F)c1)c1ccc2ncc(-c3ccc(N4C[C@@H](N)CC4=O)cc3)n2n1 [Example 118, (4S)-4-Amino-1-[4-[6-[(5-fluoro-3-pyridyl)methyl-methylamino]imidazo[1,2-b]pyridazin-3-yl]phenyl]pyrrolidin-2-one] |
| 8.00 to 9.00 | 7.00 to 7.70 | 7.00 to 7.70 | CN(Cc1cccc(F)c1)c1ccc2ncc(-c3ccc(N4CC(C)(N)CC4=O)cc3)n2n1 (single isomer, unassigned) [Example 87, 4-Amino-1-[4-[6-[(3-fluorophenyl)methyl-methylamino]imidazo[1,2-b]pyridazin-3-yl]phenyl]-4-methylpyrrolidin-2-one] |
| 8.00 to 9.00 | 7.00 to 7.70 | 7.00 to 7.70 | CN(Cc1cncc(F)c1Cl)c1ccc2ncc(-c3ccc(N4C[C@@H](N)CC4=O)cc3)n2n1 [Example 126, (4S)-4-Amino-1-[4-[6-[(4-chloro-5-fluoro-3-pyridyl)methyl-methylamino]imidazo[1,2-b]pyridazin-3-yl]phenyl]pyrrolidin-2-one] |
| 8.00 to 9.00 | 7.00 to 7.70 | 7.00 to 7.70 | C[C@@H](Nc1ccc2ncc(-c3cccc(OC[C@@H]4CCN4)c3)n2n1)c1cccc(F)c1 [Example 57, 3-[3-[[(2S)-Azetidin-2-yl]methoxy]phenyl]-N-[(1R)-1-(3-fluorophenyl)ethyl]imidazo[1,2-b]pyridazin-6-amine] |

Reference: patent US9751887B2, “Imidazo[1,2-b]pyridazine derivatives as kinase inhibitors” (Daiichi Sankyo Company, Limited, priority 2012, dated 2017)
